Measurements published in patent US9695155B2, “Herbicidal substituted pyrimidinyloxy benzene compounds” (E. I. DU PONT DE NEMOURS AND COMPANY, priority 2013, dated 2017).

How the values were obtained:
morningglory [1] = experiment: Test A postemergence; format: in vivo, Ipomoea spp.; conditions: Ipomoea, post-emergence, 240 h
Procedure, shortened: (§1)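 Pre- and postemergence greenhouse screen. Soil: loam + sand. Spray carrier: solvent mixture, non-phytotoxic, with surfactant. Post timing at 1–2 leaves, height 2–10 cm. Readout: visual injury on a 0–100 scale roughly 10 days after application, untreated plants as reference.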

johnsongrass = experiment: Test C preemergence; format: in vivo, Sorghum halepense; conditions: Sorghum halepense, pre-emergence
Procedure, shortened: (§2)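 Whole-plant greenhouse test with surfactant-containing solvent formulation, applied preemergence to sown loam–sand pots or postemergence to 2–18 cm plants. Scored by eye 13 to 15 days on, 0–100 scale.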

velvetleaf [2] = experiment: Test A preemergence; format: in vivo, Abutilon theophrasti
Procedure, shortened: as §1

wheat [3] = experiment: Test A preemergence; format: in vivo, Triticum aestivum
Procedure, shortened: as §1

waterhemp = experiment: Test C postemergence; format: in vivo, Amaranthus rudis; conditions: Amaranthus tuberculatus, post-emergence
Procedure, shortened: as §2

pigweed = experiment: Test C postemergence; format: in vivo, Amaranthus retroflexus; conditions: Amaranthus retroflexus, post-emergence
Procedure, shortened: as §2

wheat [4] = experiment: Test A postemergence; format: in vivo, Triticum aestivum; conditions: Triticum aestivum, post-emergence, 240 h
Procedure, shortened: as §1

morningglory [5] = experiment: Test A preemergence; format: in vivo, Ipomoea spp.
Procedure, shortened: as §1

ragweed = experiment: Test C preemergence; format: in vivo, Ambrosia elatior; conditions: Ambrosia artemisiifolia, pre-emergence
Procedure, shortened: as §2

sedge, umbrella = experiment: Test B flooded paddy test; format: in vivo, Cyperus difformis; conditions: Cyperus difformis, Flood, 250 g ai/ha; 0 to 100 scale where 0 is no effect and 100 is complete control; read-out: Plant response rating, Sedge, Umbrella
Procedure, shortened: (§3)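 Flooded to 3 cm at the 2-leaf stage, pots received compound through the paddy water and were kept at that depth under greenhouse conditions. After 13–15 days, effect was rated by eye relative to controls, 0 = none and 100 = complete control.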

blackgrass = experiment: Test C preemergence; format: in vivo, Alopecurus myosuroides; conditions: Alopecurus myosuroides, pre-emergence
Procedure, shortened: as §2

velvetleaf [6] = experiment: Test A postemergence; format: in vivo, Abutilon theophrasti; conditions: Abutilon theophrasti, post-emergence, 240 h
Procedure, shortened: as §1

Italian ryegrass = experiment: Test C preemergence; format: in vivo, Lolium multiflorum; conditions: Lolium multiflorum, pre-emergence
Procedure, shortened: as §2

wheat, winter = experiment: Test C preemergence; format: in vivo, Triticum aestivum; conditions: Triticum aestivum, pre-emergence
Procedure, shortened: as §2

Heteranthera limosa = experiment: Test B flooded paddy test; format: in vivo; conditions: Heteranthera limosa, Flood, 250 g ai/ha; 0 to 100 scale where 0 is no effect and 100 is complete control; read-out: Plant response rating, Ducksalad
Procedure, shortened: as §3

velvetleaf [7] = experiment: Test C preemergence; format: in vivo, Abutilon theophrasti; conditions: Abutilon theophrasti, pre-emergence
Procedure, shortened: as §2

[8] = 125 g ai/ha, 0 to 100 scale where 0 is no effect and 100 is complete control

N#Cc1cccc(Oc2ncc(Cl)cn2)c1-n1cc(C(F)(F)F)cn1 [Compound 58, 3-[(5-chloro-2-pyrimidinyl)oxy]-2-[4-(trifluoromethyl)-1H-pyrazol-1-yl]benzonitrile]
pest or weed control at 125 g/ha (morningglory [1]; 125 g ai/ha, 0 to 100 scale where 0 is no effect and 100 is complete control, read-out: Plant response rating, Morningglory): 100%
pest or weed control at 500 g/ha (morningglory [1]; 500 g ai/ha, 0 to 100 scale, 0 no effect, 100 complete control, read-out: Plant response rating Morningglory): 100%
pest or weed control at 62 g/ha (johnsongrass; 62 g ai/ha, preemergence, scale 0 (no effect) to 100 (complete control), read-out: Johnsongrass plant response rating): 100%
pest or weed control at 125 g/ha (johnsongrass; 125 g ai/ha, preemergence, scale 0 (no effect) to 100 (complete control), read-out: Johnsongrass plant response rating): 100%
pest or weed control at 250 g/ha (johnsongrass; 250 g ai/ha, preemergence, scale 0 (no effect) to 100 (complete control), read-out: Johnsongrass plant response rating): 100%
pest or weed control at 31 g/ha (johnsongrass; Preemergence, 31 g ai/ha, scale 0 to 100, 0 no effect, 100 complete control, read-out: Plant response rating, Johnsongrass): 85%
Plant response rating, Velvetleaf (velvetleaf [2]; [8]): 90
pest or weed control at 500 g/ha (velvetleaf [2]; Abutilon theophrasti, pre-emergence, 240 h, 500 g ai/ha, 0 to 100 scale, 0 no effect, 100 complete control, approx. 10 days, read-out: Velvetleaf plant response rating): 100%
Plant response rating, Wheat (wheat [3]; [8]): 60
plant injury at 500 g/ha (wheat [3]; Triticum aestivum, pre-emergence, 240 h, 500 g ai/ha, 0 to 100 scale, 0 no effect, 100 complete control, approx. 10 days, read-out: Wheat plant response rating): 90%
pest or weed control at 125 g/ha (waterhemp; 125 g ai/ha, postemergence, read-out: Plant response rating (0 to 100), Waterhemp): 90%
pest or weed control at 250 g/ha (waterhemp; 250 g ai/ha, postemergence, read-out: Plant response rating (0 to 100), Waterhemp): 100%
pest or weed control at 31 g/ha (waterhemp; Postemergence, 31 g ai/ha, scale 0 to 100 (0 no effect, 100 complete control), 13 to 15 days, read-out: Plant response rating, Waterhemp): 85%
pest or weed control at 62 g/ha (waterhemp; Postemergence, 62 g ai/ha, scale 0 to 100 (0 no effect, 100 complete control), read-out: Plant response rating, Waterhemp): 90%
pest or weed control at 125 g/ha (pigweed; 125 g ai/ha, postemergence, read-out: Plant response rating (0 to 100), Pigweed): 98%
pest or weed control at 250 g/ha (pigweed; 250 g ai/ha, postemergence, read-out: Plant response rating (0 to 100), Pigweed): 100%
pest or weed control at 31 g/ha (pigweed; Postemergence, 31 g ai/ha, scale 0 to 100 (0 no effect, 100 complete control), 13 to 15 days, read-out: Plant response rating, Pigweed): 90%
pest or weed control at 62 g/ha (pigweed; Postemergence, 62 g ai/ha, scale 0 to 100 (0 no effect, 100 complete control), read-out: Plant response rating, Pigweed): 95%
plant injury at 125 g/ha (wheat [4]; 125 g ai/ha, 0 to 100 scale where 0 is no effect and 100 is complete control, read-out: Plant response rating, Wheat): 90%
plant injury at 500 g/ha (wheat [4]; 500 g ai/ha, 0 to 100 scale, 0 no effect, 100 complete control, read-out: Plant response rating Wheat): 100%
Plant response rating, Morningglory (morningglory [5]; [8]): 100
pest or weed control at 500 g/ha (morningglory [5]; Ipomoea, pre-emergence, 240 h, 500 g ai/ha, 0 to 100 scale, 0 no effect, 100 complete control, approx. 10 days, read-out: Morningglory plant response rating): 100%
pest or weed control at 62 g/ha (ragweed; 62 g ai/ha, preemergence, scale 0 (no effect) to 100 (complete control), read-out: Ragweed plant response rating): 100%
pest or weed control at 125 g/ha (ragweed; 125 g ai/ha, preemergence, scale 0 (no effect) to 100 (complete control), read-out: Ragweed plant response rating): 100%
pest or weed control at 250 g/ha (ragweed; 250 g ai/ha, preemergence, scale 0 (no effect) to 100 (complete control), read-out: Ragweed plant response rating): 100%
pest or weed control at 31 g/ha (ragweed; Preemergence, 31 g ai/ha, scale 0 to 100, 0 no effect, 100 complete control, read-out: Plant response rating, Ragweed): 85%
pest or weed control at 250 g/ha (sedge, umbrella): 90%
pest or weed control at 62 g/ha (blackgrass; 62 g ai/ha, preemergence, scale 0 (no effect) to 100 (complete control), read-out: Blackgrass plant response rating): 90%
pest or weed control at 125 g/ha (blackgrass; 125 g ai/ha, preemergence, scale 0 (no effect) to 100 (complete control), read-out: Blackgrass plant response rating): 90%
pest or weed control at 250 g/ha (blackgrass; 250 g ai/ha, preemergence, scale 0 (no effect) to 100 (complete control), read-out: Blackgrass plant response rating): 90%
pest or weed control at 31 g/ha (blackgrass; Preemergence, 31 g ai/ha, scale 0 to 100, 0 no effect, 100 complete control, read-out: Plant response rating, Blackgrass): 90%
pest or weed control at 125 g/ha (velvetleaf [6]; 125 g ai/ha, 0 to 100 scale where 0 is no effect and 100 is complete control, read-out: Plant response rating, Velvetleaf): 100%
pest or weed control at 500 g/ha (velvetleaf [6]; 500 g ai/ha, 0 to 100 scale, 0 no effect, 100 complete control, read-out: Plant response rating Velvetleaf): 100%
pest or weed control at 62 g/ha (Italian ryegrass; 62 g ai/ha, preemergence, scale 0 (no effect) to 100 (complete control), read-out: Ryegrass, Italian plant response rating): 90%
pest or weed control at 125 g/ha (Italian ryegrass; 125 g ai/ha, preemergence, scale 0 (no effect) to 100 (complete control), read-out: Ryegrass, Italian plant response rating): 90%
pest or weed control at 250 g/ha (Italian ryegrass; 250 g ai/ha, preemergence, scale 0 (no effect) to 100 (complete control), read-out: Ryegrass, Italian plant response rating): 90%
pest or weed control at 31 g/ha (Italian ryegrass; Preemergence, 31 g ai/ha, scale 0 to 100, 0 no effect, 100 complete control, read-out: Plant response rating, Ryegrass, Italian): 90%
plant injury at 62 g/ha (wheat, winter; 62 g ai/ha, preemergence, scale 0 (no effect) to 100 (complete control), read-out: Wheat plant response rating): 80%
plant injury at 125 g/ha (wheat, winter; 125 g ai/ha, preemergence, scale 0 (no effect) to 100 (complete control), read-out: Wheat plant response rating): 80%
plant injury at 250 g/ha (wheat, winter; 250 g ai/ha, preemergence, scale 0 (no effect) to 100 (complete control), read-out: Wheat plant response rating): 90%
plant injury at 31 g/ha (wheat, winter; Preemergence, 31 g ai/ha, scale 0 to 100, 0 no effect, 100 complete control, read-out: Plant response rating, Wheat): 45%
pest or weed control at 250 g/ha (Heteranthera limosa): 90%
pest or weed control at 62 g/ha (velvetleaf [7]; 62 g ai/ha, preemergence, scale 0 (no effect) to 100 (complete control), read-out: Velvetleaf plant response rating): 100%
pest or weed control at 125 g/ha (velvetleaf [7]; 125 g ai/ha, preemergence, scale 0 (no effect) to 100 (complete control), read-out: Velvetleaf plant response rating): 100%
pest or weed control at 250 g/ha (velvetleaf [7]; 250 g ai/ha, preemergence, scale 0 (no effect) to 100 (complete control), read-out: Velvetleaf plant response rating): 100%
pest or weed control at 31 g/ha (velvetleaf [7]; Preemergence, 31 g ai/ha, scale 0 to 100, 0 no effect, 100 complete control, read-out: Plant response rating, Velvetleaf): 100%
